The values below come from BindingDB's records for doi:10.7270/Q20K28JQ (Dupont Pharmaceuticals, 1996).

The target in the assay is T1, Sterol O-acyltransferase 1 (Rattus norvegicus, UniProt O70536).
T1 sequence (O70536 whole entry): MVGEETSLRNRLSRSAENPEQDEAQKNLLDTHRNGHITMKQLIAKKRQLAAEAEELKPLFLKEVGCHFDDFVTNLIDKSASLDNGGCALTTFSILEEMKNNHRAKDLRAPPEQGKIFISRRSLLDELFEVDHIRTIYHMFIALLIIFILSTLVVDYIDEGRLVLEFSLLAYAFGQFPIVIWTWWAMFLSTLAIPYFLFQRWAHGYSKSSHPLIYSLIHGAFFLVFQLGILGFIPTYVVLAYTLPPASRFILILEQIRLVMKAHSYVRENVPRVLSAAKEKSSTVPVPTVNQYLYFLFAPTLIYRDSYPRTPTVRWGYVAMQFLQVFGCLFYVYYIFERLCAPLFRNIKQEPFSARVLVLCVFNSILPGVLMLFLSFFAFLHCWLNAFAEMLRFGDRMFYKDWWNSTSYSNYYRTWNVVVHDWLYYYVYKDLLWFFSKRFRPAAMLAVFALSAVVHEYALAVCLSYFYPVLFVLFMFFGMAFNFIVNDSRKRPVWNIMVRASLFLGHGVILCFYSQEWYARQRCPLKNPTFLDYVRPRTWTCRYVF
The assay is described as follows: ChEBML_28359. From the text:
In vitro inhibition of rat liver microsomal Acyl coenzyme A:cholesterol acyltransferase
In the case of `CN(C(=O)c1ccc(C#N)cc1)[C@@H]1N(C)C(c2ccc(C#N)cc2)=NC1(C(F)(F)F)C(F)(F)F`, the 50% inhibitory concentration (IC50) (as a rule, the midpoint of a concentration-inhibition curve) came out at 55 µM. That is a double-digit micromolar value.
As for `CN(C(=O)c1ccc(C#N)cc1)[C@H]1N(C)C(c2ccc(C#N)cc2)=NC1(C(F)(F)F)C(F)(F)F`, the IC50 turned out to be 1 µM.
In the case of `CN(C(=O)c1ccc(C#N)cc1)C1N(C)C(c2ccc(C#N)cc2)=NC1(C(F)(F)F)C(F)(F)F` (stereo not drawn) it was 1.9 µM.
